In ChEMBL document CHEMBL5291721, “A preclinical secondary pharmacology resource illuminates target-adverse drug reaction associations of marketed drugs” (Nat Commun, 2023):

What was measured:
[1] = target: Beta-2 adrenergic receptor (Homo sapiens, UniProt P07550)
[2] = target: Muscarinic acetylcholine receptor M3 (Homo sapiens, UniProt P20309)
Histamine H1 receptor = Histamine H1 receptor (Homo sapiens, UniProt P35367)
[3] = target: 5-hydroxytryptamine receptor 2A (Homo sapiens, UniProt P28223); type: functional, cell-based
Sequence of 5-hydroxytryptamine receptor 2A (P28223 whole entry): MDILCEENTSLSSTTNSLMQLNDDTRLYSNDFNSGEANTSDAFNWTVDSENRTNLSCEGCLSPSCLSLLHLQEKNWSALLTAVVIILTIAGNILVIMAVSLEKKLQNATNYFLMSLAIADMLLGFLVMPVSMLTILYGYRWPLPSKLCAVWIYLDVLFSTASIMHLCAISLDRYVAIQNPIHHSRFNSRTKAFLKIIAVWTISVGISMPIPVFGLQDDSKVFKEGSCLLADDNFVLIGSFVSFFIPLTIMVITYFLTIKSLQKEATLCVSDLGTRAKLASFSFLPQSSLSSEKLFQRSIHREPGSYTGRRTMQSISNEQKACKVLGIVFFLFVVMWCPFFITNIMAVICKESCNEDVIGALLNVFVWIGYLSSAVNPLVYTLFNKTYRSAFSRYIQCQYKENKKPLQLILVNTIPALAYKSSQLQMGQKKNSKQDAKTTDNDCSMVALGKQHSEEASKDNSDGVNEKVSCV

[4] = target: 5-hydroxytryptamine receptor 2B (Homo sapiens, UniProt P41595); type: functional, cell-based
Sequence of 5-hydroxytryptamine receptor 2B (P41595 whole entry): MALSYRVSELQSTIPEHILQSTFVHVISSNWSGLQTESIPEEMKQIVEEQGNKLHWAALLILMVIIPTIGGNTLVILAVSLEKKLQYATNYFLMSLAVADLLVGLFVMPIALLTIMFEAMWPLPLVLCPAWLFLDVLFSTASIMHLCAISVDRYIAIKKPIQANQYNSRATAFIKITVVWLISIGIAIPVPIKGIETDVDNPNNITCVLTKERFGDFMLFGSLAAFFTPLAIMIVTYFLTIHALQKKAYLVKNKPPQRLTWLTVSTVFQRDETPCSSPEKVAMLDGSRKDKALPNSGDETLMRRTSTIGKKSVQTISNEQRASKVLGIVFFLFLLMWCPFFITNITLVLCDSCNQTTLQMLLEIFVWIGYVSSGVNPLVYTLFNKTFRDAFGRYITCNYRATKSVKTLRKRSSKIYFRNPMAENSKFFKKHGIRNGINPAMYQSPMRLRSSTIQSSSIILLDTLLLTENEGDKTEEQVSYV

Mu-type opioid receptor [5] = target: T1, Mu-type opioid receptor (Homo sapiens, UniProt P35372); assay: biochemical; type: functional
T1 sequence (P35372 whole entry): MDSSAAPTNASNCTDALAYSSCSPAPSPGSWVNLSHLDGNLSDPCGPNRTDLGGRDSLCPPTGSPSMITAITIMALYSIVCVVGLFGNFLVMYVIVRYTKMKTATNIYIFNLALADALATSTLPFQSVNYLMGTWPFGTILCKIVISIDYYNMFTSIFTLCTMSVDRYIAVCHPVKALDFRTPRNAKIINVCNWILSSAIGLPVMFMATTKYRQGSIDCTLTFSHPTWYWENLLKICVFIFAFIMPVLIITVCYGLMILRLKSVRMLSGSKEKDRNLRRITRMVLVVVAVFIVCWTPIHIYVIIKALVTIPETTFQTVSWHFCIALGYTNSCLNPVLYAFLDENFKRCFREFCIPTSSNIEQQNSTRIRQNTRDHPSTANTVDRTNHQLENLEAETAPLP

D(1A) dopamine receptor = D(1A) dopamine receptor (Homo sapiens, UniProt P21728)
Sequence of D(1A) dopamine receptor (P21728 whole entry): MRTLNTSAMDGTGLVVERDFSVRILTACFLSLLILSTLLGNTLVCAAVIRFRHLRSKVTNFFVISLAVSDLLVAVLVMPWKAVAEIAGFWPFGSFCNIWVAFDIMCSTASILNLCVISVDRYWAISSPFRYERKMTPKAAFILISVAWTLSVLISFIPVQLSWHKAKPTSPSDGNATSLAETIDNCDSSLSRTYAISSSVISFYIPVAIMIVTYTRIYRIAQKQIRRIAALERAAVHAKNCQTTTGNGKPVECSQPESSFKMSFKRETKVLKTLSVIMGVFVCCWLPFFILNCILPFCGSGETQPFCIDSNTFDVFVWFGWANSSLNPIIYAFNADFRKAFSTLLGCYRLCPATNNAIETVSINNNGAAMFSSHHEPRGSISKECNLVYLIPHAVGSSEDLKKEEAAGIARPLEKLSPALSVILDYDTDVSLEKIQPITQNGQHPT

Mu-type opioid receptor [6] = target: T1, Mu-type opioid receptor
Progesterone receptor = target: T2, Progesterone receptor (Homo sapiens, UniProt P06401)
T2 sequence (P06401 whole entry): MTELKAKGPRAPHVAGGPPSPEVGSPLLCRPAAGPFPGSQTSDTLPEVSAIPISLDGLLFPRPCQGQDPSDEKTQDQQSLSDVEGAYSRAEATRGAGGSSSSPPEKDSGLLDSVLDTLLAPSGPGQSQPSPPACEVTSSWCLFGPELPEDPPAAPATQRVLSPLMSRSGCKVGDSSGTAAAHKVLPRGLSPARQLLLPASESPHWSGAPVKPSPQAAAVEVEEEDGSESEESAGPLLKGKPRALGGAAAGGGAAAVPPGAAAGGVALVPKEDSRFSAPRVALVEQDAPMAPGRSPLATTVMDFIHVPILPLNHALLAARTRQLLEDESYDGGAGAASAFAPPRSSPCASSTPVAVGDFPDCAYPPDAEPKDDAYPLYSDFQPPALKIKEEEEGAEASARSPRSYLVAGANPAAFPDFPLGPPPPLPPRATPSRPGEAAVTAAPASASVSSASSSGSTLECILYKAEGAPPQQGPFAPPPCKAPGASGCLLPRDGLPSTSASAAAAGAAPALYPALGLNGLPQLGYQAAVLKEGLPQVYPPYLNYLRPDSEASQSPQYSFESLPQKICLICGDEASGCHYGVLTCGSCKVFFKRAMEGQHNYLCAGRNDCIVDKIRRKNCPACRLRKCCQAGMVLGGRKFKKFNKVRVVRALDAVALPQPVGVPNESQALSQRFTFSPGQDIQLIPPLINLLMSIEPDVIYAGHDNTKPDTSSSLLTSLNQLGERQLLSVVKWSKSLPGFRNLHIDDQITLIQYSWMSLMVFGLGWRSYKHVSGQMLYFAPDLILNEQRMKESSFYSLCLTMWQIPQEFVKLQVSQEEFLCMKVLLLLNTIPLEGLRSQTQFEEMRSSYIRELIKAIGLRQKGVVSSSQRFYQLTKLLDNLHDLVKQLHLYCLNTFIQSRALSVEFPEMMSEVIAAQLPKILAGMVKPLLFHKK

[7] = target: Prostaglandin G/H synthase 1 (Homo sapiens, UniProt P23219); type: functional
Sequence of Prostaglandin G/H synthase 1 (P23219 whole entry): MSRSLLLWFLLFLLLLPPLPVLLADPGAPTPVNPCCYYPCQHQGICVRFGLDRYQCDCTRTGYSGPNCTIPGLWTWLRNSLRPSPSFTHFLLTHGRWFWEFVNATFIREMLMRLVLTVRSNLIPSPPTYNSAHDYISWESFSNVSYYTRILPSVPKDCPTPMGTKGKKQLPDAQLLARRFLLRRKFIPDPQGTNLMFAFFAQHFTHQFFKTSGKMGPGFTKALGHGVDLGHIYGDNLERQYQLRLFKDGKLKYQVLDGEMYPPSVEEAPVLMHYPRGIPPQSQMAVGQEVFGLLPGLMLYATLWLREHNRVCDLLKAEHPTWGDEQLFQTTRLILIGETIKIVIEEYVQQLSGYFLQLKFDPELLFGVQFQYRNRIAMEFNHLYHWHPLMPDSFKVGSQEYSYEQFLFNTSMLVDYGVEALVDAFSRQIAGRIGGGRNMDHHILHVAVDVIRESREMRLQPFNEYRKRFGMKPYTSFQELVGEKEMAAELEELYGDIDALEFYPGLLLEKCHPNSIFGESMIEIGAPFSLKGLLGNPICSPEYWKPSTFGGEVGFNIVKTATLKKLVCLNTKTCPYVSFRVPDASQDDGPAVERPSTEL

[8] = target: Sodium-dependent noradrenaline transporter (Homo sapiens, UniProt P23975)
Sequence of Sodium-dependent noradrenaline transporter (P23975 whole entry): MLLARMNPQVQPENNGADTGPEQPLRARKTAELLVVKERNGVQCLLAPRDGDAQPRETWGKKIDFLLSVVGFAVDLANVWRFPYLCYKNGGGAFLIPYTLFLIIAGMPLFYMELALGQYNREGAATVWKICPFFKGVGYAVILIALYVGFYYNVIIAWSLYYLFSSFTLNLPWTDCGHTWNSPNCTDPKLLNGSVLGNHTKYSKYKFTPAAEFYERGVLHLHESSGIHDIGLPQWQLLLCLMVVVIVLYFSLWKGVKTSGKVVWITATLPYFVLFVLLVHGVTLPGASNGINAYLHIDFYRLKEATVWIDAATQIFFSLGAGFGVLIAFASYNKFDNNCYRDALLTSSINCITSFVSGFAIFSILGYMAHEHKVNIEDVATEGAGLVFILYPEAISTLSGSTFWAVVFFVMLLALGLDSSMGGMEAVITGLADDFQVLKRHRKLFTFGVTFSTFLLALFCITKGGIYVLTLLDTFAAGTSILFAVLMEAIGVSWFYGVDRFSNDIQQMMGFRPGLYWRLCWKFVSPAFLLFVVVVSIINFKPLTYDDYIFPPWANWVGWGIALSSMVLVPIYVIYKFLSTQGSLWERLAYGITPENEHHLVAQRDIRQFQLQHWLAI

Measured: AC50
Also: assay procedure not described here.

Sequence of Muscarinic acetylcholine receptor M3 (P20309 whole entry): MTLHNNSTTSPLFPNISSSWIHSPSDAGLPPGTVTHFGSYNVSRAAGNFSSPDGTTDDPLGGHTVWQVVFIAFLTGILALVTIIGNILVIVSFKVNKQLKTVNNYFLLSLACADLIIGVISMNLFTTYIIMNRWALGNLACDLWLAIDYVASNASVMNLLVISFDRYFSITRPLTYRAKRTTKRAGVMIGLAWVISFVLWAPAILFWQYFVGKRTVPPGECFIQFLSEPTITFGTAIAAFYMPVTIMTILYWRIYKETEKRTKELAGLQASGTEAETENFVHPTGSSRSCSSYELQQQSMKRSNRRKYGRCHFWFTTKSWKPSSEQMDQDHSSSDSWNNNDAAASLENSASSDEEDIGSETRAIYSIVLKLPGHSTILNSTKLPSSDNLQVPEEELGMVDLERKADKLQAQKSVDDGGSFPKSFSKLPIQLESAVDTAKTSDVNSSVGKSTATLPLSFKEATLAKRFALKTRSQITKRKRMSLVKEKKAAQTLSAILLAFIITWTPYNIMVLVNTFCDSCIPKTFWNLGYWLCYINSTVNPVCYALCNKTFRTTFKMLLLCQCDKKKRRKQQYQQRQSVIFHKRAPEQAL
Sequence of Histamine H1 receptor (P35367 whole entry): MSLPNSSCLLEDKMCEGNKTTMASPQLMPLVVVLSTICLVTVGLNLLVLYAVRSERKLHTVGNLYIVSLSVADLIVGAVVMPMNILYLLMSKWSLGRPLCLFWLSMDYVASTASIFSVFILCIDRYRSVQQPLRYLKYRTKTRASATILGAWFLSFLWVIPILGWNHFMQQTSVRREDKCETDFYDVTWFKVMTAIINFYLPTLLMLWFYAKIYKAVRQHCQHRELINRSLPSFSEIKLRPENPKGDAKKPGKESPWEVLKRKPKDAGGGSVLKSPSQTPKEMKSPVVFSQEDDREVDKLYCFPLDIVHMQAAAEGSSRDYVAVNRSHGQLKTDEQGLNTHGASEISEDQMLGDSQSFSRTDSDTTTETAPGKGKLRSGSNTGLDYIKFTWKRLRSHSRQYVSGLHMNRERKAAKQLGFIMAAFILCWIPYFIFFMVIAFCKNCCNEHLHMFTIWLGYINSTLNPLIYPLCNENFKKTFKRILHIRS
Sequence of Beta-2 adrenergic receptor (P07550 whole entry): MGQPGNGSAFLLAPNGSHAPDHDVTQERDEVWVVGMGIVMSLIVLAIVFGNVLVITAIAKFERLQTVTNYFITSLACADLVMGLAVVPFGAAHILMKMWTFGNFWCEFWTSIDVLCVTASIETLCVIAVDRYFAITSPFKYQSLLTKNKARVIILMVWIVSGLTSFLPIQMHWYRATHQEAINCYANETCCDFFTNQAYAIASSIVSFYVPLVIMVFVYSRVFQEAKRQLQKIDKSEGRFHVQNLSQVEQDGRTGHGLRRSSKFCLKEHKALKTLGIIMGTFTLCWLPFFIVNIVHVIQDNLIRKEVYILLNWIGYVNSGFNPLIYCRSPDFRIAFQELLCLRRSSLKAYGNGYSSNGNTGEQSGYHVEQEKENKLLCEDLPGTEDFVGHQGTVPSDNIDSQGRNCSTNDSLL

CCN(CC)C(=O)C1(c2ccccc2)CC1CN (stereo unspecified)
> 30 µM: [1] | [2] | Histamine H1 receptor | [3] | [4] | Mu-type opioid receptor [5]

CN(C)C(=O)Oc1cccc([N+](C)(C)C)c1 [NEOSTIGMINE]
> 30 µM: D(1A) dopamine receptor | Mu-type opioid receptor [6] | Progesterone receptor | [7] | [8]
